Measurements: patent publication US7060486B2, “Inhibition of sulfate-reducing-bacteria-mediated degradation using bacteria which secrete antimicrobials” (priority 1998, dated 2006)
Ends that are not written are not given here.

What was measured:
E. coli BK6 = test: Antimicrobial activity of concentrated culture supernatants in suspension; type: cell-based; conditions: buffer + kanamycin 100 μg/mL
Description: B. subtilis BE1500 containing the plasmid pBE92-based constructs expressing the antimicrobial peptide genes was grown in 25 mL of LB medium to late-exponential phase (O.D600=0.70–1.0) at 37° C. The cells were collected by centrifugation at 10,000×g for 10 mins at 4° C., and the supernatant was concentrated 25-fold using a SpeedVac concentrator (Model 200H, Savant Instruments Inc., Holbrook, N.Y.).
Expression of indolicidin and bactenecin in Bacillus was determined in duplicates by exposing E. coli BK6 in suspension to concentrated culture supernatants. E. coli BK6 was grown to an O.D600 of 0.20–0.25, pelleted at room temperature, and resuspended in different volumes (50 or 100 μL) of the concentrated supernatant. The cell suspension was incubated at 30° C. for 1 hour without aeration, and appropriate dilutions were plated on LB agar plates to determine the antimicrobial activity of the supernatant.

wild-type P. fragi = test: Live/Dead stain control visualized with CSLM; type: cell-based; conditions: 200 μg ml^−1 added to 12-hour culture, visualized after 48 hours
Description: Cells and polysaccharide were stained for 30 min simultaneously in 4 ml of staining solution using the Live/Dead Baclit bacteria viability assay kit protocol (1.125 μl ml^−1 of each stain component, Molecular Probes (Eugene, Oreg.)) and calcofluor (300 μl ml^−1, Sigma (St. Louis, Mo.), Stewart et al. 1995). The live/dead viability kit distinguishes live and dead cells based on membrane integrity; live cells with intact membranes stain green, and dead cells with compromised membranes stain red.
As a control experiment to verify that the Live/Dead stain can be used to quantify populations with live and dead cells, 200 μg ml^−1 of kanamycin was added to a 12-hour wild-type P. fragi culture and visualized with CSLM after 48 hours.

D. gigas (ATCC 19364) = test: SRB inhibitory assay: viability after one-hour exposure, MPN technique; type: cell-based; conditions: 25 μg/mL
Description: (§1) D. vulgaris (ATCC 29579) and D. gigas (ATCC 19364) were obtained from the American Type Culture Collection and cultivated in 15 mL screwcap tubes with 10 mL of modified Baar's medium (ATCC medium 1249) supplemented with 100 μL each of the oxygen-scavengers 4% sodium sulfide and Oxyrase (Oxyrase Inc., Mansfeld, Ohio). Initial cultures were grown from −85° C. glycerol stocks; all subsequent cultures were grown with a 3% inoculum from the initial culture maintained at 30° C. without shaking. […] SRB were also cultured periodically in the presence of 0.1% ferrous ammonium sulfate, and the presence of these sulfate-reducers was confirmed by the detection of black iron sulfide in the culture tubes. The desulfoviridin assay was also performed after each MPN assay to confirm the presence of D. vulgaris or D. gigas by its red color under UV light due to the release of the chromophore of the pignment desulfoviridin. (Postgate, 1984).
(§2) For determining the viability indices (Romeo, et al., 1988) of SRB, a late-exponential phase culture (O.D600 0.16 to 0.19 which corresponded to an initial cell number of 5–9×10^4 cells/mL) was exposed to various concentrations of antimicrobials for 1 hour at 30° C. One mL of cells was harvested, washed once in fresh modified Baar's medium to remove cellular debris, and resuspended in 1 mL of fresh modified Baar's medium supplemented with 10 μL each of Oxyrase (Oxyrase Inc., Mansfeld, Ohio) and 4% sodium sulphide. Aliquots of 450 μL were dispensed in 500 μL sterile eppendorf tubes and appropriate amounts of antimicrobials added and incubated at 30° C. The effectiveness of treatment was determined by the multiple-tube most-probable-number (MPN) fermentation technique. (Anonymous. Multiple-tube fermentation technique for members of the coliform group, pp. 9–45 to 9–51. In A. E. Greenberg, L. S. Clesceri, and A. D. Eaton (eds.), Standard Methods for the Examination of Water and Wastewater, 18 ed. American Public Health Association, American Water Works Association, and Water Pollution Control Federation, New York (1992)) (hereafter, Greenberg, 1992).
(§3) The MPN test for enumerating SRB was performed in three 12 mL tubes with a 1000 μL inoculum of SRB, three 12 mL tubes with a 500 μL inoculum, and three 12 mL tubes with a 100 μL inoculum. All nine tubes contained a final volume of 10 mL of modified Baar's medium supplemented with 100 μL each of 4% sodium sulfide and Oxyrase (Oxyrase Inc., Mansfeld, Ohio). The tubes were monitored for 72 hours to determine the number of tubes that were positive for growth. Growth was determined by the increase in culture turbidity, and the MPN index/mL was calculated using the Thomas formula. (Greenberg 1992).

D. vulgaris (ATCC 29579) = test: as above; type: cell-based; conditions: 25 μg/mL
Description: as §1, §2, §3

B. polymyxa 10401 = test: Susceptibility of host strains to purified antimicrobials (plate counts); type: cell-based; conditions: one hour exposure at 30° C.
Description: (§4) To determine the susceptibility of the hosts B. subtilis BE1500 and B. polymyxa to the expressed antimicrobials, these strains were grown from a single colony in 25 mL of LB medium with shaking at 37° C. to an O.D600 of 0.40–0.45. One mL aliquots were collected, washed with fresh LB medium and resuspended in 100 μL fresh LB medium in sterile eppendorf tubes. The antimicrobials indolicidin and bactenecin were added (50–100 μg/mL) and the tubes were incubated at 30° C. for one hour without shaking. Appropriate dilutions were spread on LB agar plates and incubated overnight at 37° C. to determine the extent of survival. The results were confirmed by performing two independent experiments.

B. subtilis BE1500 = test: as above; type: cell-based; conditions: one hour exposure at 30° C.
Description: as §4

B. subtilis WB600 = test: as above; type: cell-based; conditions: one hour exposure at 30° C.
Escherichia coli = conditions: 5–25 μg/mL; cited from earlier work
Staphylococcus aureus = conditions: 5–25 μg/mL; cited from earlier work

Molecule | inhibition at 100 µg/mL (E. coli BK6; Escherichia coli, BK6) [%] | E. coli BK6 CFU/mL (E. coli BK6) | red (dead) share of the sample (wild-type P. fragi) | fold less effective than the amidated form of indolicidin (D. gigas (ATCC 19364)) [fold] | fold less effective than the amidated form of indolicidin (D. vulgaris (ATCC 29579)) [fold] | Fold-reduction in cell number (B. polymyxa 10401; 50 μg/mL) | Fold-reduction in cell number (B. polymyxa 10401; 100 μg/mL) | Fold-reduction in cell number (B. subtilis BE1500; 50 μg/mL) | Fold-reduction in cell number (B. subtilis BE1500; 100 μg/mL) | Fold-reduction in cell number (B. subtilis WB600; 50 μg/mL) | Fold-reduction in cell number (B. subtilis WB600; 100 μg/mL) | inhibition (Escherichia coli) [%] | inhibition (Staphylococcus aureus) [%]
NC[C@H]1O[C@H](O[C@H]2[C@H](O)[C@@H](O[C@H]3O[C@H](CO)[C@@H](O)[C@H](N)[C@H]3O)[C@H](N)C[C@@H]2N)[C@H](O)[C@@H](O)[C@@H]1O [kanamycin] | 100 | 4 × 10^3 CFU/mL | approximately 75% | – | – | – | – | – | – | – | – | – | –
ILPWKWPWWWPWRR [Ind-OH] | – | – | – | 10 | 174 | 4 | 4 | 6000 | 10,000 | 20,000 | 40,000 | 99.9 | 99.9
